Molecular target: T1, delF508-CFTR (Homo sapiens, UniProt P13569, DEL508-508)
T1 construct: endogenous in cells; host or cells: CFBE41o- human CF bronchial epithelial cells (delF508 homozygous)
Experiment: SPQ halide-sensitive fluorescence dye assay for rescue of halide efflux (8-point concentration-response)
Format: cell-based
Conditions: for ΔSPQ (difference between maximum and minimum SPQ values) / EC50 / SPQ EC50: CFBE41o- cells, 48 h; for EC50: read-out: SPQ EC50; for potency and efficacy compared with VX-809 in SPQ assay: versus VX-809
Experimental: The method of profiling can include detecting the rescue of halide efflux from a cell. The step of detecting a rescue of halide efflux from the cell can be monitored using the halide quenched dye 6-methoxy-N-(3-sulfopropyl)-quinolinium (SPQ, Molecular Probes Inc., Eugene, Oreg.). In this method, cells are treated with a compound as described herein for a period of time (e.g., 48 hours). The rescue or correction of halide efflux is then detected using the SPQ assay with the halide dye. […] Optionally, the halide efflux is chloride efflux. The method of screening can further comprise performing the method with multiple concentrations of the compound.
The compounds were initially subjected to the SPQ halide-sensitive fluorescence dye profiling assay for rescue or correction of membrane chloride ion permeability or transport with an 8-point concentration-response curve. The EC50 values for the compounds described herein were determined using SPQ (Table 1). The ΔSPQ value was calculated by determining the difference between the maximum and minimum SPQ values for the compounds.
To perform the SPQ high throughput screening assay, CFBE41o-cells were seeded into 96-well microtiter plates and were loaded with the fluorescent halide-sensitive dye, SPQ, in serum-containing culture medium. Certain wells were loaded with known positive control corrector molecules, including the industry standard Vertex 809 (VX-809; Vertex Pharmaceuticals, Cambridge, Mass.) at 3 μM, which is the maximally effective profiling dose for VX-809. The test compounds were loaded into wells and were tested in triplicate wells at a 10 μM dose and incubated over 48 hours at room temperature. During the 48 hour period, SPQ was absorbed. Plates were washed in a sodium chloride (NaCl) based Ringer and read once over two minutes to set the baseline SPQ fluorescence activity. Then, NaCl was replaced by sodium nitrate (NaNO3) based Ringer. The plates were read twice over four minutes. The primary high throughput screen (HTS) data were analyzed to detect any function of rescued delF508-CFTR under basal conditions. The plate was read up to two times to complete the SPQ HTS assay.

T1 sequence (P13569 with tags, fused parts or gaps DEL508-508): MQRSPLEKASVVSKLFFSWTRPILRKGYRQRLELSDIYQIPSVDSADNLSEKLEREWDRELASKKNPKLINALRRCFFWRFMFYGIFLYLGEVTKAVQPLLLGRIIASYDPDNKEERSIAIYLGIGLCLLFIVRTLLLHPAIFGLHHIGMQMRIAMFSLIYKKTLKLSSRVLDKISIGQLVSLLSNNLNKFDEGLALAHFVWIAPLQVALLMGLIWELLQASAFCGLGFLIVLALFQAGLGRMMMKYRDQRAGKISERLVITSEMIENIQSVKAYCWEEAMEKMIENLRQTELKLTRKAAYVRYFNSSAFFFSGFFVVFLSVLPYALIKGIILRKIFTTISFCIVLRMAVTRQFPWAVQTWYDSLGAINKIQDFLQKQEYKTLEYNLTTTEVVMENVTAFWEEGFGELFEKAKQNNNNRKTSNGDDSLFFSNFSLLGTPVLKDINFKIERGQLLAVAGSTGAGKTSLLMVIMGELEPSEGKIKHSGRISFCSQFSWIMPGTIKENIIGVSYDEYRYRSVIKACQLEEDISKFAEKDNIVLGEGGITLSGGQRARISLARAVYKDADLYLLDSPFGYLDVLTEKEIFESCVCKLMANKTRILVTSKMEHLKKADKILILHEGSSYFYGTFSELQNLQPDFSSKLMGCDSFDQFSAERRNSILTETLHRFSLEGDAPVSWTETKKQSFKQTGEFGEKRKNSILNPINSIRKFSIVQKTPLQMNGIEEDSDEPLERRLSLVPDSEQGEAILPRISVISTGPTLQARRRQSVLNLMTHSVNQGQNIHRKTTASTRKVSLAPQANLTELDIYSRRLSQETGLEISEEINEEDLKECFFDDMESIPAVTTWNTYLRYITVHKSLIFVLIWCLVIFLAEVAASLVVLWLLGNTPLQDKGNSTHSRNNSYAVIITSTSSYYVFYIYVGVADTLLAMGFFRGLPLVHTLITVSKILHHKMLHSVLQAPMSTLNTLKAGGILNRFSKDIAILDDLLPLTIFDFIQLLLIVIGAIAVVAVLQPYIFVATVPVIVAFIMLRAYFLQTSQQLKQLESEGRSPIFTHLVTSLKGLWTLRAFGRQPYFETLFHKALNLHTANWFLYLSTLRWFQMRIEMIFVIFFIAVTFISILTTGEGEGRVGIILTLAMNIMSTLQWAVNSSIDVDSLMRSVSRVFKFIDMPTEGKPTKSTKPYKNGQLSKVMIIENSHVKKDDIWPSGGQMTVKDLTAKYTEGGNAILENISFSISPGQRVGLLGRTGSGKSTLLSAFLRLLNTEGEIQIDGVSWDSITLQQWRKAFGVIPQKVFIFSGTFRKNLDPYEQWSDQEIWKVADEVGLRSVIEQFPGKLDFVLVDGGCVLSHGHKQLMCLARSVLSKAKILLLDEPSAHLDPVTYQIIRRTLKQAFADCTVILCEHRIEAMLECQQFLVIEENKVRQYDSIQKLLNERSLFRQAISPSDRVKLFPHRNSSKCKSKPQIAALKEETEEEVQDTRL

SMILES | ΔSPQ (difference between maximum and minimum SPQ values) [RFU] | EC50 [µM] | potency and efficacy compared with VX-809 in SPQ assay | SPQ EC50
CCCN1N=C(C)Cn2c1nc1c2c(=O)n(CC(C)C)c(=O)n1C [Compound V-1] | 12233 | 17.1 |  | 
Cn1c(=O)n(Cc2ccccc2)c(=O)c2c1nc1oc(C(C)(C)C)cn12 [Compound II-2] | 13312 | 10.4 | superior potency and efficacy to VX-809 | 
C=CCn1c(=O)c2c(nc3n(-c4ccccc4C)c(C)c(C)n23)n(C)c1=O [Compound I-20] | 9362 | 3.8 |  | 
Cn1c(=O)c2nc(NCCO)[nH]c2n(C)c1=O [Compound B-8] |  |  |  | No effect
CCn1c(=O)c2c(nc3n(-c4ccc(C)cc4)c(C)cn23)n(C)c1=O [Compound I-9] | 3793 | 3.7 |  | 
Cc1cn2c3c(=O)n(C)c(=O)n(C)c3nc2n1CC[N+](C)(C)C [Compound A-9] |  |  |  | No effect
CSc1nc(SCC(=O)O)c2sc3c(c2n1)COC(C)(C)C3 [Compound 2] | 4862 | 15.8 |  | 
CC1CC(=O)c2cnc3c(c2C1)c(=O)[nH]c(=O)n3Cc1ccco1 (stereo not shown) [VI-1] | 2459 | 7.9 |  | 
Cc1cc(C)cc(-n2c(C)cn3c4c(=O)n(CCCO)c(=O)n(C)c4nc23)c1 [Compound I-39] | 11432 | 13 |  | 
C=CCn1c(=O)c2c(nc3n2CC(C(C)(C)C)=NN3CC)n(C)c1=O [Compound V-5] | 9200 | 8 |  | 
Cc1cn2c3c(=O)n(C)c(=O)n(C)c3nc2n1CCN(C)C [Compound A-8] |  |  |  | No effect
CCC(C)n1c(C)c(C)n2c3c(=O)n(CC(=O)OC)c(=O)n(C)c3nc12 (stereo not shown) [Compound I-49] | 9652 | 9 |  | 
CCCn1c(=O)c2c(nc3n2C(C)C(C)=NN3CC(C)C)n(C)c1=O (stereo not shown) [Compound V-3] | 7753 | 4 | superior potency and efficacy to VX-809 | 
Cn1c(=O)c2c3c(cnc2n(C)c1=O)C(=O)CC(c1ccccc1)C3 (stereo not shown) [VI-3] | 5826 | 6.3 |  | 
C=C(C)CN1N=C(C)Cn2c1nc1c2c(=O)n(CC)c(=O)n1C [Compound V-22] | 3369 | 6.5 |  | 
Cc1cn2c3c(=O)n(C)c(=O)n(C)c3nc2n1-c1ccccc1O [Compound A-1] |  |  |  | No effect
C/C=C/CN1N=C(C)Cn2c1nc1c2c(=O)n(CC(C)C)c(=O)n1C [Compound V-14] | 5767 | > 30 |  | 
Cc1c(C)n2c3c(=O)n(CCCO)c(=O)n(C)c3nc2n1Cc1ccco1 [Compound I-47] | 7294 | 10.6 |  | 
Cn1c(=O)c2[nH]c(NCCNc3ccccn3)nc2n(C)c1=O [Compound B-13] |  |  |  | No effect
C=CCn1c(C)cn2c3c(=O)n(Cc4ccccc4C)c(=O)n(C)c3nc12 [Compound I-16] | 6996 | 17.7 |  | 
CCc1ccc(N2CC(C)Cn3c2nc2c3c(=O)[nH]c(=O)n2C)cc1 (stereo not shown) [IV-7] | 3692 | 9.7 |  | 
COc1ccc(CN2CCN(c3nc4c(=O)n(C)c(=O)n(C)c4[nH]3)CC2)cc1 [Compound B-7.1] | 800 | 0.9 | superior potency and efficacy to VX-809 | 
COc1cccc(N2CC(C)Cn3c2nc2c3c(=O)n(C)c(=O)n2C)c1 (stereo not shown) [IV-5] | 2122 | 3.4 |  | 
Cn1c(=O)c2[nH]c(N3CCC(O)CC3)nc2n(C)c1=O [Compound B-15] |  |  |  | No effect
CCCn1c(=O)c2c(nc3n2CC(C)=NN3CCC(C)C)n(C)c1=O [Compound V-10] | 9555 | 8.8 |  | 
CCOCCn1c(=O)c2c(nc3n(-c4ccc(OC)cc4)c(C)c(C)n23)n(C)c1=O [Compound I-45] | 5321 | 23.3 |  | 

Source: patent publication US9546176B2, “Small molecule bicyclic and tricyclic CFTR correctors” (DISCOVERYBIOMED, INC., priority 2012, dated 2017)
